Experimental data as given in patent publication US20230286929A1, “AROMATIC BRIDGED RING AMIDE DERIVATIVES FOR THE TREATMENT AND PROPHYLAXIS OF HEPATITIS B VIRUS INFECTION” (Hoffmann-La Roche Inc., priority 2020, published 2023).

Experiments:
Format in all cases: cell-based
[1] = test system: HBeAg; assay: PHH HBV natural infection assay, HBeAg (alphalisa); conditions: Hepatitis B virus, Hepatocyte, 72 h, read-out: HbeAg IC50
Method: (§1) Detailed procedures regarding primary human hepatocyte (PHH) HBV natural infection assay are described as below. One tube of frozen PHH (10 million cells) is thawed in 37° C. water bath and then transferred to 20 mL of PHH thawing medium (Sigma, InVitroGRO HT Medium, Cat. S03319) with gently mixing. The cells were then centrifuged at […] for 5 min, the supernatant was discarded and the tube was refilled with 25 mL of PHH plating medium (Sigma, InVitroGRO CP Medium, Cat. 503317). The tube was shaken very gently to re-suspend all cells. 50 μl of cells were transferred to each well 384-well collagen I coated plate with appropriate liquid handling equipment, e.g. Integra VIAFLO384 or Agilent Bravo. The cells were then cultured for 24 hours in a cell incubator. For HBV infection, after PHH attachment on the culture plate, the plating medium was removed and replenished with PHH culture medium containing HBV virus. The PHH culture medium was prepared with Dulbecco's Modified Eagle Medium (DMEM)/F12 (1:1 in volume ratio) containing 10% fetal bovine serum (Gibco, Cat. 10099141), […] (Gibco, Cat. PHG03I1L), 20 ng/mL dexamethasone (Sigma, Cat. D4902-100 mg), 250 ng/mL human recombinant insulin (Gibco, Cat. 41400045) and 100 U/mL penicillin. HBV virus at 200 genome equivalent (GE) per cell with 4% PEG8000 (Sigma, Cat. P1458) containing culture medium were added to the PHH culture medium for infection. The cells were then cultured for 24 hours in cell incubator. Then the cell culture supernatant was removed. The HBV-infected PHH were cultured with sandwich culture method with PHH culture medium containing 1% DMSO and 0.25 mg/mL matrix gel for 72 hours. The supernatant was then refreshed with PHH culture medium containing different concentrations of testing compounds for two times with 72-hour interval. At the end of treatment, the supernatant was collected for viral markers measurements, including HBsAg, HBeAg, HBV DNA and cytotoxicity. HBsAg and HBeAg were detected using alphalisa method using their specific antibodies. For HBV DNA detection, HBV DNA Quantitative Fluorescence Diagnostic Kit (Sansure Biotech Inc.) was used following the manufacture's protocol. Cytotoxicity was determined using Cell Counting Kit-8 (CCK8, Dojindo Molecular Technologies, Inc.).
(§2) The compounds of the present invention were tested for their capacity to inhibit HBsAg and HBeAg as described herein.

[2] = Cytotoxicity in PHH natural infection assay (Cell Counting Kit-8); conditions: HBV-infected primary human hepatocytes, CCK8
Method: as §1

[3] = test system: HBsAg; assay: PHH HBV natural infection assay, HBsAg (alphalisa); conditions: Hepatitis B virus, Hepatocyte, 72 h, read-out: HBsAg IC50
Method: as §1, §2

With `CS(=O)(=O)c1ccc(C(=O)NC23CC(c4nc5cc(Cl)ccc5o4)(C2)C3)o1` [Example 1, N-[3-(5-chloro-1,3-benzoxazol-2-yl)-1-bicyclo[1.1.1]pentanyl]-5-methylsulfonyl-furan-2-carboxamide] the IC50 [1] was 1.77 µM, the CC50 at 144 h [2] was over 100 µM and the IC50 [3] was 2.17 µM.

For `C[S+]([O-])c1ccc(C(=O)NC23CC(c4nc5cc(Cl)ccc5o4)(C2)C3)o1` (stereo not drawn) [Example 2, N-[3-(5-chloro-1,3-benzoxazol-2-yl)-1-bicyclo[1.1.1]pentanyl]-5-methylsulfinyl-furan-2-carboxamide], the IC50 [1] was 2.14 µM, the CC50 at 144 h [2] was over 100 µM and the IC50 [3] was 6.45 µM.

Work on `C[S@+]([O-])c1ccc(C(=O)NC23CC(c4nc5cc(Cl)ccc5o4)(C2)C3)o1` [Example 2-a, N-[3-(5-chloro-1,3-benzoxazol-2-yl)-1-bicyclo[1.1.1]pentanyl]-5-[(S)-methylsulfinyl]furan-2-carboxamide] yielded an IC50 [1] of 1.19 µM, a CC50 at 144 h [2] of over 100 µM and an IC50 [3] of 2.38 µM.

With `C[S@@+]([O-])c1ccc(C(=O)NC23CC(c4nc5cc(Cl)ccc5o4)(C2)C3)o1` [Example 2-b, N-[3-(5-chloro-1,3-benzoxazol-2-yl)-1-bicyclo[1.1.1]pentanyl]-5-[(R)-methylsulfinyl]furan-2-carboxamide] the IC50 [1] was 1.89 µM, the CC50 at 144 h [2] was over 100 µM and the IC50 [3] was 3.64 µM.

`CSc1ccc(C(=O)NC23CC(c4nc5cc(Cl)ccc5o4)(C2)C3)o1` [Example 3, N-[3-(5-chloro-1,3-benzoxazol-2-yl)-1-bicyclo[1.1.1]pentanyl]-5-methylsulfanyl-furan-2-carboxamide] gave an IC50 [1] of 3.83 µM, a CC50 at 144 h [2] of over 100 µM and an IC50 [3] of 8.05 µM.

With `O=C(NC12CC(c3nc4cc(Cl)ccc4o3)(C1)C2)c1ccc([S+]([O-])C2CC2)o1` (stereo not drawn) [Example 4, N-[3-(5-chloro-1,3-benzoxazol-2-yl)-1-bicyclo[1.1.1]pentanyl]-5-cyclopropylsulfinyl-furan-2-carboxamide] the IC50 [1] was 1.32 µM, the CC50 at 144 h [2] was 80 µM and the IC50 [3] was 2.81 µM.

In the case of `O=C(NC12CC(c3nc4cc(Cl)ccc4o3)(C1)C2)c1ccc(S(=O)(=O)C2CC2)o1` [Example 5, N-[3-(5-chloro-1,3-benzoxazol-2-yl)-1-bicyclo[1.1.1]pentanyl]-5-cyclopropylsulfonyl-furan-2-carboxamide], the IC50 [1] is reported as 0.75 µM, the CC50 at 144 h [2] is reported as over 100 µM and the IC50 [3] is reported as 0.688 µM.

For `O=C(NC12CC(c3nc4cc(Cl)ccc4o3)(C1)C2)c1ccc([S+]([O-])CC2CC2)o1` (stereo not drawn) [Example 6, N-[3-(5-chloro-1,3-benzoxazol-2-yl)-1-bicyclo[1.1.1]pentanyl]-5-(cyclopropylmethylsulfinyl)furan-2-carboxamide], the IC50 [1] was 1.37 µM, the CC50 at 144 h [2] was over 100 µM and the IC50 [3] was 2.02 µM.

For `O=C(NC12CC(c3nc4cc(Cl)ccc4o3)(C1)C2)c1ccc(S(=O)(=O)CC2CC2)o1` [Example 7, N-[3-(5-chloro-1,3-benzoxazol-2-yl)-1-bicyclo[1.1.1]pentanyl]-5-(cyclopropylmethylsulfonyl)furan-2-carboxamide], the IC50 [1] was 1.21 µM, the CC50 at 144 h [2] was 73.1 µM and the IC50 [3] was 1.31 µM.

For `O=C(NC12CC(c3nc4cc(Cl)ccc4o3)(C1)C2)c1ccc(Br)o1` [Example 8, 5-bromo-N-[3-(5-chloro-1,3-benzoxazol-2-yl)-1-bicyclo[1.1.1]pentanyl]furan-2-carboxamide], the IC50 [1] was 14.8 µM, the CC50 at 144 h [2] was over 100 µM and the IC50 [3] was 9.04 µM.

With `CS(=O)(=O)c1ccc(C(=O)NC23CC(c4nc5cc(Cl)ccc5o4)(C2)C3)s1` [Example 9, N-[3-(5-chloro-1,3-benzoxazol-2-yl)-1-bicyclo[1.1.1]pentanyl]-5-methylsulfonyl-thiophene-2-carboxamide] the IC50 [1] was 5.37 µM, the CC50 at 144 h [2] was over 100 µM and the IC50 [3] was 9.64 µM.

`NS(=O)(=O)c1ccc(C(=O)NC23CC(c4nc5cc(Cl)ccc5o4)(C2)C3)o1` [Example 10, N-[3-(5-chloro-1,3-benzoxazol-2-yl)-1-bicyclo[1.1.1]pentanyl]-5-sulfamoyl-furan-2-carboxamide] showed an IC50 [1] of 2.67 µM, a CC50 at 144 h [2] of over 100 µM and an IC50 [3] of 4.44 µM.

`N=S(=O)(c1ccc(C(=O)NC23CC(c4nc5cc(Cl)ccc5o4)(C2)C3)o1)C1CC1` (stereo not drawn) [Example 11, N-[3-(5-chloro-1,3-benzoxazol-2-yl)-1-bicyclo[1.1.1]pentanyl]-5-(cyclopropylsulfonimidoyl)furan-2-carboxamide] showed an IC50 [1] of 0.594 µM, a CC50 at 144 h [2] of over 100 µM and an IC50 [3] of 0.823 µM.

For `CS(=N)(=O)c1ccc(C(=O)NC23CC(c4nc5cc(Cl)ccc5o4)(C2)C3)o1` (stereo not drawn) [Example 12, N-[3-(5-chloro-1,3-benzoxazol-2-yl)-1-bicyclo[1.1.1]pentanyl]-5-(methylsulfonimidoyl)furan-2-carboxamide], the IC50 [1] was 0.891 µM, the CC50 at 144 h [2] was over 100 µM and the IC50 [3] was 1.52 µM.

Compound `C[S@@](=N)(=O)c1ccc(C(=O)NC23CC(c4nc5cc(Cl)ccc5o4)(C2)C3)o1` [Example 12-a, N-[3-(5-chloro-1,3-benzoxazol-2-yl)-1-bicyclo[1.1.1]pentanyl]-5-[(R)-methylsulfonimidoyl]furan-2-carboxamide] has an IC50 [1] of 1.3 µM, a CC50 at 144 h [2] of over 100 µM and an IC50 [3] of 2.23 µM.

`C[S@](=N)(=O)c1ccc(C(=O)NC23CC(c4nc5cc(Cl)ccc5o4)(C2)C3)o1` [Example 12-b, N-[3-(5-chloro-1,3-benzoxazol-2-yl)-1-bicyclo[1.1.1]pentanyl]-5-[(S)-methylsulfonimidoyl]furan-2-carboxamide] gave an IC50 [1] of 1.01 µM, a CC50 at 144 h [2] of over 100 µM and an IC50 [3] of 2.19 µM.

`N=S(=O)(CC1CC1)c1ccc(C(=O)NC23CC(c4nc5cc(Cl)ccc5o4)(C2)C3)o1` (stereo not drawn) [Example 13, N-[3-(5-chloro-1,3-benzoxazol-2-yl)-1-bicyclo[1.1.1]pentanyl]-5-(cyclopropylmethylsulfonimidoyl)furan-2-carboxamide] showed an IC50 [1] of 0.995 µM, a CC50 at 144 h [2] of over 100 µM and an IC50 [3] of 0.95 µM.

In the case of `O=C(NC12CC(c3nc4cc(Cl)ccc4o3)(C1)C2)c1ccc(S(=O)(=O)CC2COC2)o1` [Example 14, N-[3-(5-chloro-1,3-benzoxazol-2-yl)-1-bicyclo[1.1.1]pentanyl]-5-(oxetan-3-ylmethylsulfonyl)furan-2-carboxamide], the IC50 [1] is reported as 3.56 µM, the CC50 at 144 h [2] is reported as 95.7 µM and the IC50 [3] is reported as 5.18 µM.

With `N=S(=O)(CC1COC1)c1ccc(C(=O)NC23CC(c4nc5cc(Cl)ccc5o4)(C2)C3)o1` (stereo not drawn) [Example 15, N-[3-(5-chloro-1,3-benzoxazol-2-yl)-1-bicyclo[1.1.1]pentanyl]-5-(oxetan-3-ylmethylsulfonimidoyl)furan-2-carboxamide] the IC50 [1] was 3.31 µM, the CC50 at 144 h [2] was over 100 µM and the IC50 [3] was 4.76 µM.

With `CS(=O)(=O)Cc1ccc(C(=O)NC23CC(c4nc5cc(Cl)ccc5o4)(C2)C3)o1` [Example 16, N-[3-(5-chloro-1,3-benzoxazol-2-yl)-1-bicyclo[1.1.1]pentanyl]-5-(methylsulfonylmethyl)furan-2-carboxamide] the IC50 [1] was 0.575 µM, the CC50 at 144 h [2] was over 100 µM and the IC50 [3] was 0.66 µM.

`CS(=N)(=O)Cc1ccc(C(=O)NC23CC(c4nc5cc(Cl)ccc5o4)(C2)C3)o1` (stereo not drawn) [Example 17, N-[3-(5-chloro-1,3-benzoxazol-2-yl)-1-bicyclo[1.1.1]pentanyl]-5-[(methylsulfonimidoyl)methyl]furan-2-carboxamide] showed an IC50 [1] of 2.19 µM, a CC50 at 144 h [2] of over 100 µM and an IC50 [3] of 3.25 µM.

Work on `NS(=O)(=O)Cc1ccc(C(=O)NC23CC(c4nc5cc(Cl)ccc5o4)(C2)C3)o1` [Example 18, N-[3-(5-chloro-1,3-benzoxazol-2-yl)-1-bicyclo[1.1.1]pentanyl]-5-(sulfamoylmethyl)furan-2-carboxamide] yielded an IC50 [1] of 3.7 µM, a CC50 at 144 h [2] of over 100 µM and an IC50 [3] of 4.96 µM.

`O=C(NC12CC(c3nc4cc(Cl)ccc4o3)(C1)C2)c1cccc(Br)c1` [Example 19, 3-bromo-N-[3-(5-chloro-1,3-benzoxazol-2-yl)-1-bicyclo[1.1.1]pentanyl]benzamide] gave an IC50 [1] of 3.23 µM, a CC50 at 144 h [2] of over 100 µM and an IC50 [3] of 2.61 µM.

In the case of `O=C(NC12CC(c3nc4cc(Cl)ccc4o3)(C1)C2)c1ccc(Br)cc1` [Example 20, 4-bromo-N-[3-(5-chloro-1,3-benzoxazol-2-yl)-1-bicyclo[1.1.1]pentanyl]benzamide], the IC50 [1] is reported as 7.21 µM, the CC50 at 144 h [2] is reported as over 100 µM and the IC50 [3] is reported as 4.28 µM.

Compound `CSc1cccc(C(=O)NC23CC(c4nc5cc(Cl)ccc5o4)(C2)C3)c1` [Example 21, N-[3-(5-chloro-1,3-benzoxazol-2-yl)-1-bicyclo[1.1.1]pentanyl]-3-methylsulfanyl-benzamide] has an IC50 [1] of 1.87 µM, a CC50 at 144 h [2] of over 100 µM and an IC50 [3] of 2.6 µM.
